One test deals with dephosphorylated FGFR2 (Homo sapiens (Human), UniProt P21802). The test can be described thus: FGFR enzyme binding assay (HTRF tracer displacement), FGFR2. The conditions noted are these: 5 nM dephosphorylated FGFR2, average of multiple determinations if made. The gist of the method:
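Kinase and tracer were incubated with compound for 60 minutes at 22° C. Tracer displacement was then measured by HTRF, and results were expressed as POC with 1 μM control inhibitor defining full displacement.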

Test [1] has as its target HEK-293 cells transfected with dox-inducible human wild type FGFR3 (Homo sapiens (Human), UniProt P22607). The test can be described thus: FGFR3 pFGFR cell assay (ELISA). The test is classed as cell-based. As to conditions: HEK-293 dox-inducible FGFR3, 1 hour compound, 100 ng/ml FGF-acidic. The gist of the method: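 Doxycycline-induced (1 μg/ml) HEK-293 cells expressing wild-type human FGFR3, treated 1 h with compound (1:3 series, top final 5 μM), then stimulated 5 min with 100 ng/ml FGF-acidic. Phospho-FGFR3 measured by ELISA (total FGFR3 capture, phosphotyrosine detection, OD 450 nm); IC50 from 4-parameter fit of POC values.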

pIC50: −log10 of the molar value.

Sequence of HEK-293 cells transfected with dox-inducible human wild type FGFR3 (P22607 23-806): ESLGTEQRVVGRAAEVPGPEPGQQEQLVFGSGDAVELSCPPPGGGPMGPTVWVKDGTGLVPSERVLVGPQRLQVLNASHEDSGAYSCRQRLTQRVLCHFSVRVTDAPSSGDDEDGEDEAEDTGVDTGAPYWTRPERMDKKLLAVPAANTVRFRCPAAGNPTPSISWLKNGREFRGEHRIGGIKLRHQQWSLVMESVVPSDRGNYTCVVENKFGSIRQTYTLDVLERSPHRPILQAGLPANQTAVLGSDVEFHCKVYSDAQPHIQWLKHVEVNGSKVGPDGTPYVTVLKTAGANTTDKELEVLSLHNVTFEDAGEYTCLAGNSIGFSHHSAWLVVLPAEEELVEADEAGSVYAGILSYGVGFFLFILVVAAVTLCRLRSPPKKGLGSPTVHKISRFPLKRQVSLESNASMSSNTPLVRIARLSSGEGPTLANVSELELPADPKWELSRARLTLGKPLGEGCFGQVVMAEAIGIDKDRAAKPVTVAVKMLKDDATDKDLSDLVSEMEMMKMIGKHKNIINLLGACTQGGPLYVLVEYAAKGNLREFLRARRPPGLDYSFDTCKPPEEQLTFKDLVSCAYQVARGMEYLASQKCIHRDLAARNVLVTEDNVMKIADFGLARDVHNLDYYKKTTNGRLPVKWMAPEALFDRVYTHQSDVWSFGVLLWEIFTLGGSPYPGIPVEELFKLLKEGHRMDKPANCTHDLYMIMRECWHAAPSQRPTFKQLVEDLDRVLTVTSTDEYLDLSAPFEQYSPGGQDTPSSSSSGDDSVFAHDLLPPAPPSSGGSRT
Sequence of dephosphorylated FGFR2 (P21802 22-821): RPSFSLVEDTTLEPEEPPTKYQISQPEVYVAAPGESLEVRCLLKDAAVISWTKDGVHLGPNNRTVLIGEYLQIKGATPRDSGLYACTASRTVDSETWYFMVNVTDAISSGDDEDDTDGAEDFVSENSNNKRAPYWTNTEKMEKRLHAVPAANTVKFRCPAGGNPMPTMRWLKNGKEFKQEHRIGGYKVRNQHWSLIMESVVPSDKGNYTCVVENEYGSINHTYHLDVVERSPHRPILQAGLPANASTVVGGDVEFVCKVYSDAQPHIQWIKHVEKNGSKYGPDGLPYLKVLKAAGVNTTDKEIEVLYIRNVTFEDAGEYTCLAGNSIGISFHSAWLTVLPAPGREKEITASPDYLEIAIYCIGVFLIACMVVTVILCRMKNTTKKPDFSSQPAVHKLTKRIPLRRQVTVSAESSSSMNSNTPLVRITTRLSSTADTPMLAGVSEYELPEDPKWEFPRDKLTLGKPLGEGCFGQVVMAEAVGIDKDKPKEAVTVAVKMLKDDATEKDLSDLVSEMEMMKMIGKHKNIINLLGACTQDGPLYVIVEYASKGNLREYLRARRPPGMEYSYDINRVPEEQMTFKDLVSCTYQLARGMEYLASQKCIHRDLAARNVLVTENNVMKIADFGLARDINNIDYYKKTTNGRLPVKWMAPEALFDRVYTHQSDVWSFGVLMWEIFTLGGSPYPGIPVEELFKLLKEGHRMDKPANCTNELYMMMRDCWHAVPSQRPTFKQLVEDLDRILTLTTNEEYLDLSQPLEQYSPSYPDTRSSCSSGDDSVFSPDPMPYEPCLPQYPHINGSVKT

In the case of `C=CC(=O)N1CC(F)(C(=O)N2CCC(n3cc(-c4cc(OC)c5c(Cl)cnn5c4)cn3)CC2)C1` [Example 121, 1-(3-(4-(4-(3-chloro-4-methoxypyrazolo[1,5-a]pyridin-6-yl)-1H-pyrazol-1-yl)piperidine-1-carbonyl)-3-fluoroazetidin-1-yl)prop-2-en-1-one], the pIC50 at dephosphorylated FGFR2 is 7.92; in test [1], 7.51.

For the origin of these results see patent publication US12180207B2 (ARRAY BIOPHARMA INC., priority 2018, dated 2024).
